According to ChEMBL document CHEMBL3627710, “Mitochondrial targeted β-lapachone induces mitochondrial dysfunction and catastrophic vacuolization in cancer cells” (Bioorg Med Chem Lett, 2015):
The source made the active and inactive calls. The rule behind the calls is not given here.

Columns and labels:
A549 [1] = assay: Cytotoxicity against human A549 cells assessed as decrease in cell viability after 24 hrs by Celltiter-Blue assay; assay type: functional, cell-based
WM983B = assay: Cytotoxicity against human WM983B cells assessed as decrease in cell viability at 2 to 10 uM after 24 hrs by Celltiter-Blue assay; assay type: functional, cell-based
PEO1 = assay: Cytotoxicity against human PEO1 cells assessed as decrease in cell viability at 2 to 10 uM after 24 hrs by Celltiter-Blue assay; assay type: functional, cell-based
MDA-MB-231 = assay: Cytotoxicity against human MDA-MB-231 cells assessed as decrease in cell viability at 2 to 10 uM after 24 hrs by Celltiter-Blue assay; assay type: functional, cell-based
A549 [2] = assay: Cytotoxicity against human A549 cells assessed as decrease in cell viability at 10 uM for 4 hrs measured after 3 days by Celltiter-Blue assay; assay type: functional, cell-based
[3] = Cytotoxicity against human IMR90 cells assessed as slight decrease in cell viability at 10 uM for 4 hrs measured after 3 days by Celltiter-Blue assay; assay type: cell-based; details: imr-90, 10 µM
A549 [4] = assay: Cytotoxicity against human A549 cells assessed as vacuoles formation at 6 uM after 20 hrs by phase contrast microscopy; assay type: functional, cell-based
A549 [5] = assay: Induction of apoptosis in human A549 cells assessed as viable cells by annexin-V/PI staining analysis (reference value: 97.6%); assay type: functional
A549 [6] = assay: Induction of apoptosis in human A549 cells assessed as early apoptotic cells by annexin-V/PI staining analysis (reference value: 1.1%); assay type: functional
A549 [7] = assay: Induction of apoptosis in human A549 cells assessed as late apoptotic cells by annexin-V/PI staining analysis (reference value: 1.0%); assay type: functional
A549 [8] = assay: Induction of apoptosis in human A549 cells assessed as necrotic cells by annexin-V/PI staining analysis (reference value: 0.3%); assay type: functional
A549 [9] = assay: Induction of ROS generation in human A549 cells at 6 uM for 16 hrs by DCF dye based flow cytometry; assay type: functional, cell-based
A549 [10] = assay: Induction of ROS generation in human A549 cells at 6 uM for 16 hrs by MitoSox dye based flow cytometry; assay type: functional, cell-based
A549 [11] = assay: Effect on oligomycin-induced inhibition of mitochondrial respiration in human A549 cells assessed as oxygen consumption rate by extracellular flux analyzer; assay type: functional, cell-based
A549 [12] = assay: Effect on mitochondrial morphology in human A549 cells assessed as onion skin-like structures of mitochondria by electron microscopy; assay type: functional, cell-based
A549 [13] = assay: Effect on mitochondrial morphology in human A549 cells assessed as vacuoles formation by electron microscopy; assay type: functional, cell-based
A549 [14] = assay: Induction of autophagy in human A549 cells assessed as increase in LC3-2 expression by western blot analysis; assay type: functional, cell-based

Row | Structure (SMILES) | inhibition (A549 [1]) | inhibition (WM983B) | inhibition (PEO1) | inhibition (MDA-MB-231) | inhibition (A549 [2]) | Activity [3] | Activity (A549 [4]) | Activity (A549 [5]) | Activity (A549 [6]) | Activity (A549 [7]) | Activity (A549 [8]) | Activity (A549 [9]) | Activity (A549 [10]) | Activity (A549 [11]) | Activity (A549 [12]) | Activity (A549 [13]) | Activity (A549 [14])
1 | CC(C)C[C@@H](/C=C/[C@H](Cc1ccccc1)C(=O)N1CCC[C@H]1C(=O)N[C@H](C(=O)N[C@@H](CCCNC(=O)OCc1ccccc1)C(=O)NCCC(=O)OC1CC2=C(OC1(C)C)c1ccccc1C(=O)C2=O)C(C)C)NC(=O)OC(C)(C)C (stereo not given in full) | Dose-dependent effect | Active | Active | Active | Active | Toxic | Active | 60.9% | 3.9% | 31.5% | 3.7% | Active | Active | inactive | Active | Active | Active
2 | CC1(C)OC2=C(CC1O)C(=O)C(=O)c1ccccc12 (stereo not given) | Dose-dependent effect |  |  |  |  |  | inactive | 89.2% | 4% | 5.7% | 1.1% |  |  | Active |  |  | inactive
